The record followed here is patent US7179495B1 (Universitaetsklinikum Freiburg, priority 1998, dated 2007).

Test [1] has as its system HaCaT cells. The test can be described thus: proliferation of keratinocytes, 3H-thymidine incorporation. The class given is cell-based, human. On the technique in general: Incorporation of labelled thymidine or its analogues reports DNA synthesis.
Test [2] relates to Jurkat (leukaemia). Kind of test: apoptotic DNA fragmentation by DNA gel electrophoresis. It counts as cell-based, human. The protocol:
The DNA fragmentation was determined by means of DNA gel electrophoresis. Jurkat (leukaemia) was used as the tumour cell line.
Apoptotic DNA fragments were isolated by means of lysis with NP 40. The cells were washed and pelleted after 4 hours or after 24 hours, respectively. The cell pellet was incubated for 10 sec. with lysis buffer (1% NP 40, Sigma; 20 mM EDTA, Sigma; 50 mM Tris-HCl, Sigma). the lysates were mixed with 1% SDS (Sigma), incubated at 56° C. for 2 h with RNase (5 μg/μl) (Boehringer), and digested with proteinase K (Sigma) (2.5 μg/μl) for 2 h at 37° C. After 10 M ammonium acetate had been added, the DNA was precipitated with 100% ethanol at −20° C. and analysed by means of gel electrophoresis on 1% agarose gels.

The subject of test [3] is epidermal cells (EC) and T cells (TC). Kind of test: MECLR in vitro, EC or TC preincubated with hyperforin. The following applies: FIG. 9.
Protocol: The roof of the blister was dissected out under sterile conditions using a scalpel and a suspension of epidermal cells (EC) was prepared by treating with trypsin. […] After that, the cells were washed and 50,000 EC were cocultured for 6 days (37° C., 5% CO2) with 150,000 TC (T cells) in 1640 RPMI containing 10% foetal calf serum (FCS) containing 1% penicillin-streptomycin in 96-well flat-bottomed microtitre plates (Greiner). 1 μCurie of ^3H-thymidine (Amersham) was then added per well and, after 18 h, the incorporated radioactivity was measured in a scintillation counter (Canberra Packard). The radioactivity which is measured is proportional to the replication of the DNA in the cells.
Test [4] has as its system T cells. The test can be described thus: proliferation of T cells. It counts as cell-based.
Test [5] deals with keratinocytes (HaCaT). The test can be described thus: induction of apoptosis in keratinocytes. The class given is cell-based.
The subject of test [6] is T cells. Kind of test: induction of apoptosis in T cells. It counts as cell-based.

Some results are limits rather than exact numbers.

As for `CC(C)=CCC[C@]1(C)[C@@H](CC=C(C)C)CC2(CC=C(C)C)C(=O)C(CC=C(C)C)=C(O)C1(C(=O)C(C)C)C2=O` (stereo partly shown) [hyperforin], in test [1] (human keratinocytes), the “concentration from which a proliferation-inhibiting effect is seen” value is at least 100 ng/mL. The “proliferation of HaCaT cells” value in test [1] (hyperforin 100 μg/ml, 24 h, FIG. 6) is recorded as “virtually completely inhibited”. Besides, the “apoptotic DNA fragmentation” value is “++” in test [2] (40 μM, 4 hours) and “++” in test [2] (40 μM, 24 hours). For the same molecule, in test [2] (hyperforin 40 μM vs taxol 10 μM, fully developed after only 4 hours), the “speed of apoptosis induction compared with taxol” value is on record as “induces apoptosis in tumour cells more rapidly than does taxol”. Moreover, the “proliferation in MECLR” value in test [3] (EC incubated 24 h with 24 μg of hyperforin/ml) and in test [3] (TC incubated 24 h with 24 μg of hyperforin/ml) was “significantly inhibits proliferation” in each case.

Consider `Cc1cc(O)c2c(=O)c3c(O)cc(O)c4c5c(O)cc(O)c6c(=O)c7c(O)cc(C)c8c1c2c(c34)c(c78)c65` [hypericin], for which the “effect on proliferation of T cells” value in test [4] is “proliferation-inhibiting effect”. In addition, in test [1], the “effect on proliferation of keratinocytes (HaCaT)” value was “proliferation-inhibiting effect”. Also, the induction of apoptosis result in test [5] and in test [6] was “can induce apoptasis” throughout.

As for `CC(=O)O[C@H]1C(=O)[C@@]2(C)[C@H]([C@H](OC(=O)c3ccccc3)[C@]3(O)C[C@H](OC(=O)[C@H](O)[C@@H](NC(=O)c4ccccc4)c4ccccc4)C(C)=C1C3(C)C)[C@]1(OC(C)=O)CO[C@@H]1C[C@@H]2O` [taxol, reference compound], the “apoptotic DNA fragmentation” value in test [2] (10 μM, 4 hours) was “+”; in test [2] (10 μM, 24 hours), “++”.
